Measurements: patent publication EP1203770A1 (priority 1992, dated 1994)

Molecular target: T1, HIV-1 protease (Human immunodeficiency virus type 1 group M subtype B, UniProt P04585)
T1 construct: The protease (or proteinase), consisting of only 99 amino acids, is among the smallest enzymes known
Experiment: In vitro HIV protease inhibitory assay (HIV Protease FITC Assay)
Type: biochemical
Conditions: for inhibition at 0.41 µM: HIV-1 Dose 0.410 uM; for inhibition at 0.41 µM / inhibition at 1.23 µM / inhibition at 3.7 µM / inhibition at 11 µM / inhibition at 33 µM / inhibition at 100 µM / inhibition at 0.123 µM / inhibition at 0.37 µM / inhibition at 1.1 µM / inhibition at 3.3 µM / inhibition at 10 µM / inhibition at 30 µM: read-out: HIV-1 Protease % Inhib; for inhibition at 1.23 µM: HIV-1 Dose 1.230 uM; for inhibition at 3.7 µM: HIV-1 Dose 3.700 uM; for inhibition at 11 µM: HIV-1 Dose 11.000 uM; for inhibition at 33 µM: HIV-1 Dose 33.000 uM; for inhibition at 100 µM: HIV-1 Dose 100.000 uM; for Ki: read-out: HIV-1 FITC Ki
Method: The HIV protease screening assay is based on a fluorescently labeled substrate which can be resolved from nonlabeled cleavage product using avidin-polystyrene particles, 0.7-0.9 µm. The substrate is biotinylated at the amino terminal arginine and fluorescently labeled with fluorescein isothiocynate (FITC) at the carboxyl terminal lysine. […] Substrate (20 µl of 0.2 µM), sample (10 µl of desired concentraion), and enzyme (10 µl of 0.1 µM) are added to a 96 well pandex plate. The assay is run in 0.1 M sodium acetate buffer at pH 5.5 in the presence of 1.0 M sodium chloride and 0.05% NP-40 and incubated in the dark for one hour at room temperature. Avidin coated polystyrene beads {40 µl of 0.1% (w/v)} are added and the incubation is continued in the dark for an additional half hour. The labeled cleavage product is separated from the unreacted substrate via filtration and is read on the Idexx Screen Machine. The data are analyzed by appropriate computer algorithms to ascertain percent inhibition values.

SMILES | inhibition at 0.41 µM [%] | inhibition at 1.23 µM [%] | inhibition at 3.7 µM [%] | inhibition at 11 µM [%] | inhibition at 33 µM [%] | inhibition at 100 µM [%] | Ki [nM] | inhibition at 0.123 µM (HIV-1 Dose 0.123 uM) [%] | inhibition at 0.37 µM (HIV-1 Dose 0.370 uM) [%] | inhibition at 1.1 µM (HIV-1 Dose 1.100 uM) [%] | inhibition at 3.3 µM (HIV-1 Dose 3.300 uM) [%] | inhibition at 10 µM (HIV-1 Dose 10.000 uM) [%] | inhibition at 30 µM (HIV-1 Dose 30.000 uM) [%] | HIV-1 Protease % Inhib (HIV-1 Dose 0.123 uM) [%] | HIV-1 Protease % Inhib (HIV-1 Dose 0.370 uM) [%] | HIV-1 Protease % Inhib (HIV-1 Dose 1.100 uM) [%] | HIV-1 Protease % Inhib (HIV-1 Dose 3.300 uM) [%] | HIV-1 Protease % Inhib (HIV-1 Dose 10.000 uM) [%] | HIV-1 Protease % Inhib (HIV-1 Dose 30.000 uM) [%]
CCC(Cc1ccco1)c1cc(O)c(C(c2ccccc2)C2CC2)c(=O)o1 (centres unmarked) [Example 59, 3-(Cyclopropyl-phenyl-methyl)-6-(1-furan-2-ylmethyl-propyl)4-hydroxy-pyran-2-one] | 64.2 | 81.2 | 104 | 102 | 101 | 105 | 58 | – | – | – | – | – | – | – | – | – | – | – | –
CCC(CC1OCCO1)c1cc(O)c(C(c2ccccc2)C2CC2)c(=O)o1 (centres unmarked) [Example 60, 3-(Cyclopropyl-phenyl-methyl)-6-(1-(1,3)dioxolan-2-ylmethyl-propyl)-4-hydroxy-pyran-2-one] | 63.2 | 86.7 | 106 | 113 | 111 | 123 | 46 | – | – | – | – | – | – | – | – | – | – | – | –
CCC(CC1CCCOC1)c1cc(O)c(C(c2ccccc2)C2CC2)c(=O)o1 (centres unmarked) [Example 61, 3-(Cyclopropyl-phenyl-methyl)-4-hydroxy-6-(1-(tetrahydro-pyran-3-ylmethyl)-propyl)-pyran-2-one] | 100 | 101 | 108 | 111 | 111 | 103 | 13 | – | – | – | – | – | – | – | – | – | – | – | –
CCC(CC1CCCCO1)c1cc(O)c(C(c2ccccc2)C2CC2)c(=O)o1 (centres unmarked) [Example 62, 3-(Cyclopropyl-phenyl-methyl)-4-hydroxy-6-(1-(tetrahydro-pyran-2-ylmethyl)-propyl)-pyran-2-one] | 85.7 | 95.8 | 108 | 116 | 113 | 123 | 74 | – | – | – | – | – | – | – | – | – | – | – | –
CCC(Cc1ccccn1)c1cc(O)c(C(c2ccccc2)C2CC2)c(=O)o1 (centres unmarked) [Example 63, 3-(Cyclopropyl-phenyl-methyl)-4-hydroxy-6-(1-pyridin-2-ylmethyl-propyl)-pyran-2-one] | 68.5 | 95.8 | 101 | 110 | 112 | 117 | 79 | – | – | – | – | – | – | – | – | – | – | – | –
CCC(CCCCl)c1cc(O)c(C(c2ccccc2)C2CC2)c(=O)o1 (centres unmarked) [Example 64, 6-(4-Chloro-1-ethyl-butyl)-3-(cyclopropyl-phenyl-methyl)-4-hydroxy-pyran-2-one] | – | – | – | – | – | – | 44 | 13.7 | 53.9 | 87.7 | 103 | 109 | 119 | – | – | – | – | – | –
CCC(CCC1OCCCO1)c1cc(O)c(C(c2ccccc2)C2CC2)c(=O)o1 (centres unmarked) [Example 65, 3-(Cyclopropyl-phenyl-methyl)-6-(3-(1,3)dioxan-2-yl-1-ethyl-propyl)-4-hydroxy-pyran-2-one] | – | – | – | – | – | – | 141 | < 10 | 28 | 71.2 | 93.2 | 107 | 122 | – | – | – | – | – | –
CCC(CCCl)c1cc(O)c(C(c2ccccc2)C2CC2)c(=O)o1 (centres unmarked) [Example 66, 6-(3-Chloro-1-ethyl-propyl)-3-(cyclopropyl-phenyl-methyl)-4-hydroxy-pyran-2-one] | – | – | – | – | – | – | 53 | < 10 | 36 | 75.3 | 99.4 | 102 | 108 | – | – | – | – | – | –
CCC(CCOC1CCCCO1)c1cc(O)c(C(c2ccccc2)C2CC2)c(=O)o1 (centres unmarked) [Example 67] | – | – | – | – | – | – | 84 | – | – | – | – | – | – | <10 | 32.64 | 72.63 | 92.3 | 106.66 | 118.42
CCC(Cc1ccncc1)c1cc(O)c(C(c2ccccc2)C2CC2)c(=O)o1 (centres unmarked) [Example 68, 3-(Cyclopropyl-phenyl-methyl)-4-hydroxy-6-(1-pyridin-4-ylmethyl-propyl)-pyran-2-one] | – | – | – | – | – | – | 132 | < 10 | 15.1 | 47.7 | 80.3 | 98.7 | 112 | – | – | – | – | – | –
CCC(CC(=O)N1CCOCC1)c1cc(O)c(C(c2ccccc2)C2CC2)c(=O)o1 (centres unmarked) [Example 69, 3-(Cyclopropyl-phenyl-methyl)-6-(1-ethyl-3-morpholin-4-yl-3-oxo-propyl)-4-hydroxy-pyran-2-one] | – | – | – | – | – | – | – | < 10 | < 10 | 13.9 | 42.1 | 75.2 | 98.5 | – | – | – | – | – | –
CCC(Cc1cccnc1)c1cc(O)c(C(c2ccccc2)C2CC2)c(=O)o1 (centres unmarked) [Example 70, 3-(Cyclopropyl-phenyl-methyl)-4-hydroxy-6-(1-pyridin-3-ylmethyl-propyl)-pyran-2-one] | – | – | – | – | – | – | 64 | < 10 | 38.3 | 67.3 | 88.9 | 92.8 | 98.6 | – | – | – | – | – | –
CCC(CCc1ccsc1)c1cc(O)c(C(c2ccccc2)C2CC2)c(=O)o1 (centres unmarked) [Example 71, 3-(Cyclopropyl-phenyl-methyl)-6-(1-ethyl-3-thiophen-3-yl-propyl)-4-hydroxy-pyran-2-one] | – | – | – | – | – | – | 54 | 11.6 | 46.3 | 75 | 84 | 95.3 | 96.4 | – | – | – | – | – | –
CCCC(CC1CCCOC1)c1cc(O)c(C(c2ccccc2)C2CC2)c(=O)o1 (centres unmarked) [Example 72, 3-(Cyclopropyl-phenyl-methyl)-4-hydroxy-6-[1-(tetrahydro-pyran-3-ylmethyl)-butyl]-pyran-2-one] | – | – | – | – | – | – | 31 | 35 | 68.4 | 90.7 | 98.7 | 93.9 | 97.7 | – | – | – | – | – | –
CCC(CCCN1CCOCC1)c1cc(O)c(C(c2ccccc2)C2CC2)c(=O)o1 (centres unmarked) [Example 73, 3-(Cyclopropyl-phenyl-methyl)-6-(1-ethyl-4-morpholin-4-yl-butyl)-4-hydroxy-pyran-2-one] | – | – | – | – | – | – | – | < 10 | < 10 | < 10 | < 10 | 28.9 | 61.4 | – | – | – | – | – | –
CCC(CC1COc2ccccc2O1)c1cc(O)c(C(c2ccccc2)C2CC2)c(=O)o1 (centres unmarked) [Example 74, 3-(Cyclopropyl-phenyl-methyl)-6-[1-(2,3-dihydro-benzo[1,4]dioxin-2-ylmethyl)-propyl]-4-hydroxy-pyran-2-one] | – | – | – | – | – | – | 186 | < 10 | 17.5 | 53.4 | 81.4 | 96.7 | 106 | – | – | – | – | – | –
CC(C)Cc1cc(O)c(C(c2ccccc2)C2CC2)c(=O)o1 (centres unmarked) [Example 75, 3-(Cyclopropyl-phenyl-methyl)-4-hydroxy-6-isobutyl-pyran-2-one] | – | – | – | – | – | – | 127 | 11.5 | 33.8 | 66 | 86.6 | 98.5 | 104 | – | – | – | – | – | –
CCC(CC1=CCCOC1)c1cc(O)c(C(c2ccccc2)C2CC2)c(=O)o1 (centres unmarked) [Example 76, 3-(Cyclopropyl-phenyl-methyl)-6-[1-(5,6-dihydro-2H-pyran-3-ylmethyl)-propyl]-4-hydroxy-pyran-2-one] | – | – | – | – | – | – | – | 25 | 54 | 82.4 | 98.9 | 102 | 105 | – | – | – | – | – | –
CCC(c1ccccc1)c1c(O)c(Br)c(C(CC2CC2)CC2CC2)oc1=O (centres unmarked) [Example 77] | 69.4 | 86.9 | 101 | 109 | 108 | 110 | 75 | – | – | – | – | – | – | – | – | – | – | – | –
CCCc1oc(=O)c(C(c2ccccc2)C2CC2)c(O)c1CCOCCOC (centres unmarked) [Example 78, 3-(Cyclopropyl-phenyl-methyl)-4-hydroxy-5-[2-(2-methoxy-ethoxy)-ethyl]-6-propyl-pyran-2-one] | 50.5 | 68.9 | 93.2 | 101 | 107 | 106 | 196 | – | – | – | – | – | – | – | – | – | – | – | –
